Reference: patent US20240391800A1, “HYPERSALINE DESALINATION USING IONIC LIQUIDS AND LOW-TEMPERATURE HEAT” (UNIVERSITY OF NOTRE DAME DU LAC, priority 2021, published 2024)
Values joined by “and” are separate entries in the source; they are usually repeats but may differ in a detail not shown here. Equal values may be shown once.

Legend:
[1] = Viscosity (rheometer); assay type: physicochemical; conditions: for Viscosity in Pa · s: 293 K; for Viscosity: TA Instrument Discovery HR-2, temperature not stated
Protocol: Table 3. The viscosity was measured with Discovery Hybrid Rheometer 2.

[2] = Solubility of ionic liquid in water (LC-MS of [Tf2N]-); conditions: for Solubility in H2O (ppm): IL in water / residual in recovered water; for Solubility in H2O: Table 7 / Example 2
[3] = Directional solvent extraction (DSE) desalination cycle, moderate / seawater-salinity NaCl feed; conditions: seawater salinity feedwater (3.5 wt %, 14,000 ppm Na+)
[4] = Ionic liquid concentration / solubility in NaCl solution or brine; assay type: physicochemical
Protocol: Additional experiments were performed to measure IL concentration in the brine with different salinities. In these experiments, the brine (MX, FIG. 1) salinity is 4% or higher depending on the initial mixing ratio of the saline water and IL.

[5] = DSE desalination cycle, high-salinity / saturated / hypersaline NaCl feed

CCCCCCCC[P+](CCCC)(CCCC)CCCC [[P4448][Tf2N]] [Tributyloctylphosphonium bis(trifluoromethanesulfonyl)imide]
Viscosity in Pa · s [1]: 0.433 Pa · s and 0.433 ± 0.099 Pa · s

CCCCCCCC[P+](CCCC)(CCCC)CCCC [[P4448][Bzlm]] [Tributyloctylphosphonium benzo[d]imidazol-1-ide]
Viscosity in Pa · s [1]: 0.185 ± 0.092 Pa · s

CCCCn1cc[n+](C)c1 [[bmim][Tf2N], 1-Butyl-3-methylimidazolium bis(trifluoromethylsulfonyl)imide]
Solubility in H2O (ppm) [2]: <90 ppm
Viscosity in Pa · s [1]: 0.056 ± 0.010 Pa · s

CC[n+]1ccn(C)n1 [[1,2,3-emtriz][Tf2N], 1-ethyl-3-methyl-1,2,3-triazolium bistriflimide]
Ion rejection, seawater concentration [3]: 92.5%
solubility in 4% NaCl solution [4]: about 41 ppm
Solubility in H2O [2]: ~390 ppm
Viscosity [1]: 0.035 Pa · s

CCCCCCCCCCCCCC[P+](CCCCCC)(CCCCCC)CCCCCC [[P66614][Tf2N], Trihexyltetradecylphosphonium bis(trifluoromethanesulfonyl)imide]
Viscosity in Pa · s [1]: 0.081 ± 0.059 Pa · s

CC(C)C[C@H](NS(=O)(=O)C(F)(F)F)C(=O)O.CCCCCCCC[P+](CCCC)(CCCC)CCCC [[P4448] I-Leu, Tributyloctylphosphonium trifluoromethanesulfonylleucine]
Viscosity in Pa · s [1]: 1.017 ± 0.078 Pa · s

CCn1cc[n+](C)c1 [[emim][Tf2N], 1-Ethyl-3-methylimidazolium bis(trifluoromethylsulfonyl)imide]
IL concentration in the brine (MX) ([4]; brine with 4% salinity): 4 ppm
IL solubility in saturated NaCl solution ([4]; saturated NaCl solution): lower than 4 ppm
Solubility in H2O (ppm) [2]: 130-150 ppm
Viscosity in Pa · s [1]: 0.033 ± 0.014 Pa · s

COC[n+]1ccn(C)c1 [[mommim][Tf2N], 1-(methoxymethyl)-3-methyl-1H-imidazol-3-ium bis(trifluoromethylsulfonyl)imide]
highest salt rejection rate obtained ([5]; NaCl 19.6 wt % hypersaline feed): 95.8%
Ion rejection, hypersaline ([5]; NaCl 19.6 wt %, Na+ 77,300 ppm feed, average of samples): 89.5%
Ion rejection, seawater concentration [3]: 95.2%
solubility in 4% NaCl solution [4]: about 26 ppm
Solubility in H2O [2]: ~270 ppm
Viscosity [1]: 0.056 Pa · s
